Bounds are passed on as bounds.

In the first assay the target is JAK2 (Homo sapiens (Human), UniProt O60674). Kind of assay: Jak biochemical HTRF assay, JAK2. The note with it: recombinant purified GST-tagged catalytic domain; HTRF format; [ATP] 8.5 μM. An excerpt: (§1) Jak Biochemical HTRF Assay Protocol
Sequence of JAK2 (O60674 849-1124): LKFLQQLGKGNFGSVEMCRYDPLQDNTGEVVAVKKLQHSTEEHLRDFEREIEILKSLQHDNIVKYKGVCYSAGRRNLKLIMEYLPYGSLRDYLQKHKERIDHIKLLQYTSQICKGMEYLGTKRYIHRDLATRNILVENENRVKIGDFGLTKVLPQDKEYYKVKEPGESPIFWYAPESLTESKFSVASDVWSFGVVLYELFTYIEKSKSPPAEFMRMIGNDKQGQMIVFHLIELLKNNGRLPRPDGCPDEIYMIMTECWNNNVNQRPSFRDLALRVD
(§2) Subsequent reagent additions employed an Agilent Bravo.
In general terms: In TR-FRET formats the signal depends on donor and acceptor labels being close together.
What is called IC50 is the concentration at which inhibition is half-maximal. Consider `CC1(COC(=O)N2CC[C@H](n3cc(C(N)=O)c(Nc4ccc(F)cc4)n3)[C@H](C#N)C2)COC1` (racemic) [Example 5-45, (3-methyloxetan-3-yl)methyl (3R,4S and 3S,4R)-4-{4-carbamoyl-3-[(4-fluorophenyl)amino]-1H-pyrazol-1-yl}-3-cyanopiperidine-1-carboxylate], for which the IC50 is above 1500 nM.
With `N#C[C@@H]1CN(Cc2ncco2)CC[C@H]1n1cc(C(N)=O)c(Nc2ccc(F)cc2)n1` (racemic) [Example 6-29, 1-[(3R,4R and 3S,4S)-3-cyano-1-(1,3-oxazol-2-ylmethyl)piperidin-4-yl]-3-[(4-fluorophenyl)amino]-1H-pyrazole-4-carboxamide], the IC50 amounted to 47 nM.

The assay is the same for the next values; noted with them: recombinant purified GST-tagged catalytic domain; HTRF format; [ATP] […].
In the case of `N#C[C@@H]1CN(C(=O)OC2CCCCC2)CC[C@H]1n1cc(C(N)=O)c(Nc2ccc(F)cc2)n1` (mixture of isomers) [Example 5-17, cyclohexyl (3R,4R and 3S,4S)-4-{4-carbamoyl-3-[(4-fluorophenyl)amino]-1H-pyrazol-1-yl}-3-cyanopiperidine-1-carboxylate], the IC50 amounted to 1230 nM.

The target of the next assay is JAK1 (Homo sapiens (Human), UniProt P23458). Kind of assay: Jak biochemical HTRF assay, JAK1. The note with it: recombinant purified GST-tagged catalytic domain; HTRF format; [ATP] 31.8 μM.
Sequence of JAK1 (P23458 875-1153): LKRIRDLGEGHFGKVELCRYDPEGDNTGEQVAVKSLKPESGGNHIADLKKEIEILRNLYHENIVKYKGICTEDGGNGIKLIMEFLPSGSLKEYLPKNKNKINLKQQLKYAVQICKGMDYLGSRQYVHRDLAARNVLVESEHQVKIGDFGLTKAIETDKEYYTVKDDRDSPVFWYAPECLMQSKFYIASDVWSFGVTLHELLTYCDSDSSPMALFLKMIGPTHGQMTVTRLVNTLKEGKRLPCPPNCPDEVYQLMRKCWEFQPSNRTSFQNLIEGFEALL
Source text: as §1, §2
Turning to `N#C[C@@H]1CCOC[C@H]1n1cc(C(N)=O)c(Nc2ccc(C(F)(F)F)nc2)n1` (single isomer, unassigned) [Example 9-15, 1-[(3S,4R or 3R,4S)-4-cyanotetrahydro-2H-pyran-3-yl]-3-{[6-(trifluoromethyl)pyridin-3-yl]amino}-1H-pyrazole-4-carboxamide], the half-inhibitory concentration (IC50) turned out to be 46 nM.
For `CC1=NOC(CN2CC[C@@H](n3cc(C(N)=O)c(Nc4ccc(F)cc4)n3)[C@H](C#N)C2)C1` (mixture of isomers) [Example 6-39, 1-{(3R,4R and 3S,4S)-3-cyano-1-[(3-methyl-4,5-dihydroisoxazol-5-yl)methyl]piperidin-4-yl}-3-[(4-fluorophenyl)amino]-1H-pyrazole-4-carboxamide], the IC50 worked out at 4 nM.
The same measure, in the same setting: as for `CCOC(=O)COC(=O)N1CC[C@@H](n2cc(C(N)=O)c(Nc3ccc(F)cc3)n2)[C@H](C#N)C1` (racemic) [Example 5-38, 2-ethoxy-2-oxoethyl (3R,4R and 3S,4S)-4-{4-carbamoyl-3-[(4-fluorophenyl)amino]-1H-pyrazol-1-yl}-3-cyanopiperidine-1-carboxylate], the figure is 3 nM; as for `N#CCC1(COC(=O)N2CC[C@@H](n3cc(C(N)=O)c(Nc4ccc(F)cc4)n3)[C@H](C#N)C2)CC1` (racemic) [Example 5-39, [1-(cyanomethyl)cyclopropyl]methyl (3R,4R and 3S,4S)-4-{4-carbamoyl-3-[(4-fluorophenyl)amino]-1H-pyrazol-1-yl}-3-cyanopiperidine-1-carboxylate], 25 nM; as for `N#C[C@@H]1CN(C(=O)OC2CCOCC2)CC[C@H]1n1cc(C(N)=O)c(Nc2ccc(F)cc2)n1` (racemic) [Example 5-13, tetrahydro-2H-pyran-4-yl (3R,4R and 3S,4S)-4-{4-carbamoyl-3-[(4-fluorophenyl)amino]-1H-pyrazol-1-yl}-3-cyanopiperidine-1-carboxylate], 20 nM.
Still for that read-out and setting: as for `N#C[C@@H]1CN(C(=O)OCCN2CCCC2=O)CC[C@H]1n1cc(C(N)=O)c(Nc2ccc(F)cc2)n1` (racemic) [Example 5-15, 2-(2-oxopyrrolidin-1-yl)ethyl (3R,4R and 3S,4S)-4-{4-carbamoyl-3-[(4-fluorophenyl)amino]-1H-pyrazol-1-yl}-3-cyanopiperidine-1-carboxylate], the figure is 19 nM.
For the compound `N#C[C@@H]1CN(Cc2cccc(F)n2)CC[C@H]1n1cc(C(N)=O)c(Nc2ccc(F)cc2)n1` (racemic) [Example 6-36, 1-{(3R,4R and 3S,4S)-3-cyano-1-[(6-fluoropyridin-2-yl)methyl]piperidin-4-yl}-3-[(4-fluorophenyl)amino]-1H-pyrazole-4-carboxamide], the half-maximal inhibitory concentration (IC50) was determined as 2 nM.
Still for that read-out and setting: the value for `COC1CC(CN2CC[C@@H](C#N)[C@H](n3cc(C(N)=O)c(Nc4ccc(F)cc4)n3)C2)C1` (mixture of isomers) [Example 6-9, 1-{(3S,4R and 3R,4S)-4-cyano-1-[(3-methoxycyclobutyl)methyl]piperidin-3-yl}-3-[(4-fluorophenyl)amino]-1H-pyrazole-4-carboxamide] was 16 nM.
As for `N#C[C@@H]1CCN(Cc2cccnc2F)C[C@H]1n1cc(C(N)=O)c(Nc2ccc(F)cc2)n1` (racemic) [Example 6-17, 1-{(3S,4R and 3R,4S)-4-cyano-1-[(2-fluoropyridin-3-yl)methyl]piperidin-3-yl}-3-[(4-fluorophenyl)amino]-1H-pyrazole-4-carboxamide], the IC50 was found to be 1 nM.
The same measure, in the same setting: as for `CCOC(=O)N1CC[C@@H](n2cc(C(N)=O)c(Nc3ccc(F)cc3)n2)[C@H](C#N)C1` (racemic) [Example 5-23, ethyl (3R,4R and 3S,4S)-4-{4-carbamoyl-3-[(4-fluorophenyl)amino]-1H-pyrazol-1-yl}-3-cyanopiperidine-1-carboxylate], the figure is 10 nM; as for `CC(C)(C)CCOC(=O)N1CC[C@@H](C#N)C(n2cc(C(N)=O)c(Nc3ccc(F)cc3)n2)C1` (mixture of isomers) [Example 4, 3,3-Dimethylbutyl(3S,4R and 3R,4S)-3-{4-carbamoyl-3-[(4-fluorophenyl)amino]-1H-pyrazol-1-yl}-4-cyanopiperidine-1-carboxylate], 8 nM; as for `N#C[C@@H]1CN(C(=O)OC2CCOCC2)CC[C@@H]1n1cc(C(N)=O)c(Nc2ccc(F)cc2)n1` (racemic) [Example 5-60, tetrahydro-2H-pyran-4-yl (3R,4S and 3S,4R)-4-{4-carbamoyl-3-[(4-fluorophenyl)amino]-1H-pyrazol-1-yl}-3-cyanopiperidine-1-carboxylate], 358 nM.
On the same count and under the same terms, the value for `N#C[C@@H]1CCN(C(=O)OC2CCOCC2)CC1n1cc(C(N)=O)c(Nc2ccc(F)cc2)n1` (mixture of isomers) [Example 5-85, tetrahydro-2H-pyran-4-yl (3S,4R and 3R,4S)-3-{4-carbamoyl-3-[(4-fluorophenyl)amino]-1H-pyrazol-1-yl}-4-cyanopiperidine-1-carboxylate] was 6 nM; that for `N#C[C@@H]1CN(C(=O)OC2CCCC2)CC[C@@H]1n1cc(C(N)=O)c(Nc2ccc(F)cc2)n1` (racemic) [Example 5-49, cyclopentyl (3R,4S and 3S,4R)-4-{4-carbamoyl-3-[(4-fluorophenyl)amino]-1H-pyrazol-1-yl}-3-cyanopiperidine-1-carboxylate] was 257 nM.
Consider `N#C[C@@H]1CCN(C(=O)OCCC2CC2)CC1n1cc(C(N)=O)c(Nc2ccc(F)cc2)n1` (mixture of isomers) [Example 5-91, 2-cyclopropylethyl (3S,4R and 3R,4S)-3-{4-carbamoyl-3-[(4-fluorophenyl)amino]-1H-pyrazol-1-yl}-4-cyanopiperidine-1-carboxylate], for which the half-maximal inhibitory concentration (IC50) is 1 nM.
For `N#C[C@@H]1CN(C(=O)OC2CCOC2)CC[C@@H]1n1cc(C(N)=O)c(Nc2ccc(F)cc2)n1` (mixture of isomers) [Example 5-51, tetrahydrofuran-3-yl (3R,4S and 3S,4R)-4-{4-carbamoyl-3-[(4-fluorophenyl)amino]-1H-pyrazol-1-yl}-3-cyanopiperidine-1-carboxylate], the IC50 was found to be 212 nM.
Turning to `N#C[C@@H]1CCOC[C@H]1n1cc(C(N)=O)c(Nc2cnc3cc(Cl)ccc3c2)n1` (single isomer, unassigned) [Example 9-21, 3-[(7-chloroquinolin-3-yl)amino]-1-[(3S,4R or 3R,4S)-4-cyanotetrahydro-2H-pyran-3-yl]-1H-pyrazole-4-carboxamide], the IC50 was determined as 21 nM.
Regarding `COC(C)(C)c1ccc(Nc2nn([C@@H]3COCC[C@H]3C#N)cc2C(N)=O)cc1` (single isomer, unassigned) [Example 9-25, 1-[(3S,4R or 3R,4R)-4-cyanotetrahydro-2H-pyran-3-yl]-3-{[4-(1-methoxy-1-methylethyl)phenyl]amino}-1H-pyrazole-4-carboxamide], the IC50 was determined as 0.1 nM.
On to `N#C[C@H]1CCOC[C@@H]1n1cc(C(N)=O)c(Nc2ccc(C(F)(F)F)nc2)n1` (single isomer, unassigned) [Example 9-14, 1-[(3R,4S or 3S,4R)-4-cyanotetrahydro-2H-pyran-3-yl]-3-{[6-(trifluoromethyl)pyridin-3-yl]amino}-1H-pyrazole-4-carboxamide], for which the IC50 came to 0.7 nM.
Take `CC(C)(C)COC(=O)N1CC[C@H](n2cc(C(N)=O)c(Nc3ccc(F)cc3)n2)[C@H](C#N)C1` (racemic) [Example 5-50, 2,2-dimethylpropyl (3R,4S and 3S,4R)-4-{4-carbamoyl-3-[(4-fluorophenyl)amino]-1H-pyrazol-1-yl}-3-cyanopiperidine-1-carboxylate]: the concentration for half-maximal inhibition (IC50) came to 625 nM.
For `N#C[C@H]1CCOC[C@@H]1n1cc(C(N)=O)c(Nc2ccc(Cl)c(F)c2)n1` (single isomer, unassigned) [Example 9-12, 3-[(4-chloro-3-fluorophenyl)amino]-1-[(3R,4S or 3S,4R)-4-cyanotetrahydro-2H-pyran-3-yl]-1H-pyrazole-4-carboxamide], the IC50 came out at 16 nM.
Take `N#C[C@@H]1CN(Cc2cncc(F)c2)CC[C@H]1n1cc(C(N)=O)c(Nc2ccc(F)cc2)n1` (racemic) [Example 6-28, 1-{(3R,4R and 3S,4S)-3-cyano-1-[(5-fluoropyridin-3-yl)methyl]piperidin-4-yl}-3-[(4-fluorophenyl)amino]-1H-pyrazole-4-carboxamide]: the IC50 came to 6 nM.
Take `N#C[C@@H]1CCN(C(=O)OCCN2CCOCC2)CC1n1cc(C(N)=O)c(Nc2ccc(F)cc2)n1` (mixture of isomers) [Example 5-87, 2-morpholin-4-ylethyl (3S,4R and 3R,4S)-3-{4-carbamoyl-3-[(4-fluorophenyl)amino]-1H-pyrazol-1-yl}-4-cyanopiperidine-1-carboxylate]: the concentration for half-maximal inhibition (IC50) came to 4 nM.
Same read-out and setting: the value for `CC(C)(COC(=O)N1CC[C@@H](n2cc(C(N)=O)c(Nc3ccc(F)cc3)n2)[C@H](C#N)C1)n1cccn1` (racemic) [Example 5-27, 2-methyl-2-(1H-pyrazol-1-yl)propyl (3R,4R and 3S,4S)-4-{4-carbamoyl-3-[(4-fluorophenyl)amino]-1H-pyrazol-1-yl}-3-cyanopiperidine-1-carboxylate] was 92 nM.

The record behind these values is patent US9394282B2, “Pyrazole carboxamides as Janus kinase inhibitors” (Merck Sharp & Dohme Corp., priority 2011, dated 2016).
